Format in all cases: functional
In experiment [1] the test system is Chilo suppressalis. As to the kind of experiment: Insecticidal activity against Chilo suppressalis (rice stem borer) assessed as mortality at 50 ug/g administered as topical application.
For experiment [2], the system named is Nilaparvata lugens. Kind of experiment: Insecticidal activity against Nilaparvata lugens (brown planthopper) assessed as mortality at 50 ppm. To be noted: for mortality at 50 ppm: Nilaparvata lugens.
Experiment [3] has as its system Chilo suppressalis. As to the kind of experiment: Insecticidal activity against Chilo suppressalis (rice stem borer) assessed as mortality compound administered as topical application.
Experiment [4] relates to Culex pipiens molestus. Kind of experiment: Insecticidal activity against Culex pipiens molestus assessed as mortality at 5 ppm. The conditions noted are these: for mortality at 5 ppm: Culex pipiens.
For experiment [5], the system named is Spodoptera litura. Kind of experiment: Insecticidal activity against Spodoptera litura assessed as mortality at 500 ppm. The conditions noted are these: for mortality at 500 ppm: Spodoptera litura.
Experiment [6] deals with Tetranychus urticae. As to the kind of experiment: Acaricidal activity against Tetranychus urticae (two-spotted spider mite) assessed as mortality at 500 ppm. The conditions noted are these: for mortality at 500 ppm: Tetranychus urticae.

Structures are written as SMILES.

As usually defined, the mortality is the percentage killed. As usually defined, the LD50 is the dose expected to kill half of the subjects tested.

Consider `CN(C)CC1CCS[S+]1[O-].O=C(O)C(=O)O` (centres undefined), for which the mortality in experiment [1] is given as 100%. Moreover, the mortality at 50 ppm in experiment [2] worked out at 100%. Further, in experiment [3], the LD50 came out at 7.5 mg/kg. For the same molecule, in experiment [4], the mortality at 5 ppm came to 100%. Also, the mortality at 500 ppm was determined as 0% in experiment [5] and 100% in experiment [6].

As for `CCN(CC)C(=O)[C@]1(C#N)SC[C@@H](CN(C)C)CS1.O=C(O)C(=O)O`, the mortality in experiment [1] was determined as 100%. Further, in experiment [2], the mortality at 50 ppm amounted to 100%. For the same molecule, the LD50 in experiment [3] was 5.8 mg/kg. The mortality at 5 ppm in experiment [4] amounted to 95%. Moreover, the mortality at 500 ppm in experiment [5] and in experiment [6] was 100% throughout.

On to `CC(C)NC(=O)SCC(CSC(=O)NC(C)C)CN(C)C.O=C(O)C(=O)O`, for which the mortality in experiment [1] was 100%; in experiment [2], 0%; in experiment [6], 90%. In experiment [3], the LD50 came to 30.5 mg/kg. In addition, in experiment [4], the mortality at 5 ppm is 100%. Further, the mortality at 500 ppm in experiment [5] was found to be 0%.

In the case of `CCC(=O)SCC(CSC(=O)CC)CN(C)C`, the mortality came to 100% in experiment [1]; 70% in experiment [2]; 100% in experiment [4]; 40% in experiment [5]; 100% in experiment [6]. In addition, in experiment [3], the LD50 is 7.6 mg/kg.

`CN(C)C[C@@H]1CCSC(C#N)(c2ccc(Cl)cc2)S1.O=C(O)C(=O)O` (mixture of isomers): the mortality in experiment [1] is on record as 100%. The mortality at 50 ppm in experiment [2] is 90%. Also, the LD50 in experiment [3] came out at 20.7 mg/kg. Besides, the mortality at 5 ppm in experiment [4] stood at 90%. For the same molecule, the values for the mortality at 500 ppm in experiment [5] and in experiment [6] were 0% and 100%, respectively.

`CN(C)CC1CCSS1.O=C(O)C(=O)O` (centres undefined): the mortality in experiment [1] is given as 100%. Moreover, the mortality at 50 ppm in experiment [2] turned out to be 80%. Besides, the LD50 in experiment [3] is 4.3 mg/kg. The mortality at 5 ppm in experiment [4] amounted to 100%. In addition, the mortality at 500 ppm is 30% in experiment [5] and 100% in experiment [6].

As for `CC(C)NC(=O)SCCC(CN(C)C)SC(=O)NC(C)C` (centres undefined), in experiment [1], the mortality is reported as 100%. Also, in experiment [2], the mortality at 50 ppm came to 45%. Besides, the LD50 in experiment [3] was determined as 24.5 mg/kg. The mortality at 5 ppm in experiment [4] is 65%. In addition, the mortality at 500 ppm in experiment [5] turned out to be 0%; in experiment [6], 50%.

Consider `CCN(CC)C(=O)[C@]1(C#N)SC[C@H](CN(C)C)CS1`, for which the mortality in experiment [1] was 100%; in experiment [2] it was 100%; in experiment [4] it was 100%; in experiment [5], 100%; in experiment [6], 90%. The 50% lethal dose (LD50) in experiment [3] is 5.6 mg/kg.

As to `CN(C)C1CS[S+]([O-])C1.O=C(O)C(=O)O` (centres undefined) [NEREISTOXIN MONOXIDE HYDROGEN OXALATE], the mortality in experiment [1] was 100%. For the same molecule, the mortality at 50 ppm in experiment [2] amounted to 100%. Also, the LD50 in experiment [3] worked out at 5.8 mg/kg. The mortality at 5 ppm in experiment [4] amounted to 50%. Also, the mortality at 500 ppm in experiment [5] was 30%; in experiment [6] it was 60%.

In the case of `CN(C)CC1CSC(C(=O)c2ccccc2)(C(=O)c2ccccc2)SC1`, the mortality in experiment [1] is 100%; in experiment [2], 100%; in experiment [4], 100%; in experiment [5] it was 0%; in experiment [6] it was 80%. Moreover, the median lethal dose (LD50) in experiment [3] is 13.5 mg/kg.

On to `CNC(=S)SCCC(CN(C)C)SC(=S)NC` (centres undefined), for which the mortality in experiment [1] turned out to be 100%. In addition, the mortality at 50 ppm in experiment [2] was 70%. In experiment [3], the median lethal dose (LD50) was determined as 15.8 mg/kg. The mortality at 5 ppm in experiment [4] is 70%. Further, the mortality at 500 ppm in experiment [5] came out at 10%; in experiment [6], 80%.

On to `CN(C)C[C@@H]1CCSC(C(=O)c2ccccc2)(C(=O)c2ccccc2)S1`, for which the mortality is listed as 100% in experiment [1]; 90% in experiment [2]; 40% in experiment [4]; 10% in experiment [5]; 100% in experiment [6]. Moreover, the LD50 in experiment [3] came to 7.1 mg/kg.

Turning to `CN(C)CC(CCSS(=O)(=O)c1ccccc1)SS(=O)(=O)c1ccccc1` (centres undefined), in experiment [1], the mortality turned out to be 100%. Further, the mortality at 50 ppm in experiment [2] stood at 30%. Also, in experiment [3], the LD50 was determined as 11.6 mg/kg. For the same molecule, in experiment [4], the mortality at 5 ppm was 100%. In addition, the mortality at 500 ppm in experiment [5] worked out at 0%; in experiment [6], 100%.

In the case of `CCN(CC)C(=O)[C@]1(C#N)SC[C@H](CN(C)C)CS1.O=C(O)C(=O)O`, the mortality in experiment [1] came to 100%. In addition, the mortality at 50 ppm in experiment [2] is 80%. The median lethal dose (LD50) in experiment [3] was determined as 7.2 mg/kg. In experiment [4], the mortality at 5 ppm was 100%. The mortality at 500 ppm in experiment [5] and in experiment [6] was 100% throughout.

These data come from ChEMBL document CHEMBL3045009, “Synthesis and Biological Activity of the Functional Derivatives of 3- and 4-(Dimethyl-aminomethyl)-1,2-dithiolanes” (1992).
